Here are results for 19 compounds from patent US11566007B2, “Ras inhibitors” (Revolution Medicines, Inc., priority 2019, dated 2023).

Assay [1] has as its system NCI-H358 cells (K-Ras G12C). In words: Potency assay: pERK in NCI-H358 cells. Type of assay: cell-based, human. The note with it: Homo sapiens, NCI-H358; H358 KRAS G12C; read-out: pERK EC50. In outline: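 pERK decrease read by AlphaLISA SureFire p-ERK1/2 or In-Cell Western after 4 h compound exposure at 37 °C, 5% CO2.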
The subject of a further assay is NCI-H358 (K-Ras G12C). As to the kind of experiment: CellTiter-Glo cell viability assay, NCI-H358. The format is cell-based, human. The note with it: Homo sapiens, NCI-H358, 120 h, NCI-H358, 5-day treatment; class symbols; read-out: Additional H358 Cell Viability assay data (K-Ras G12C, IC50). In outline:
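Compounds dispensed directly onto seeded K-Ras mutant cells; plates read on day 5 after ~30 min equilibration to room temperature, by CellTiter-Glo luminescence. Signal normalized as (sample/mean DMSO)×100, then fitted to a four-parameter logistic curve.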

Another assay deals with K-Ras G13C (Homo sapiens (Human), UniProt P01116+P62937, G13C). In words: Ras-Raf (BRAF RBD) disruption / FRET / MOA assay, KRAS G13C. The format is biochemical. The note with it: KRAS G13C; Ras-Raf disruption/FRET/MOA assay; read-out: IC50* KRAS G13C FRET data. In outline: (§1)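 Compounds, top final concentration 30 μM in 10-point 3-fold series, incubated 3 hours at 25° C with nucleotide-loaded Ras, cyclophilin A and BRAF RBD.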

The target in the next assay is NRAS G12C (Homo sapiens (Human), UniProt P01111+P62937, G12C). As to the kind of experiment: Ras-Raf (BRAF RBD) disruption / FRET / MOA assay, NRAS G12C. Type of assay: biochemical. The note with it: read-out: IC50* NRAS G12C FRET data. In outline: as §1

Bounds are passed on as bounds.

Chain of K-Ras G13C (P01116-2 other isoform, or with tags, fused parts or gaps G13C): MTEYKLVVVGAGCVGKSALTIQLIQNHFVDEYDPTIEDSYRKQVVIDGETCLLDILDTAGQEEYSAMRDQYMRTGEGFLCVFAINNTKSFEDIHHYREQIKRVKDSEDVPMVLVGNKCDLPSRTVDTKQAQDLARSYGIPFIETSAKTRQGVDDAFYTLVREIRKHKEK
Chain of K-Ras G13C (P62937 whole entry): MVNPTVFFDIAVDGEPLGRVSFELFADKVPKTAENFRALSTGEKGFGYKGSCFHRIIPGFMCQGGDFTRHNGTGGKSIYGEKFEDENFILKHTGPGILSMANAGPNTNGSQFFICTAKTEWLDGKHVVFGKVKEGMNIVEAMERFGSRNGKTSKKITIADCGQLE
Chain of NRAS G12C (P01111 whole entry G12C): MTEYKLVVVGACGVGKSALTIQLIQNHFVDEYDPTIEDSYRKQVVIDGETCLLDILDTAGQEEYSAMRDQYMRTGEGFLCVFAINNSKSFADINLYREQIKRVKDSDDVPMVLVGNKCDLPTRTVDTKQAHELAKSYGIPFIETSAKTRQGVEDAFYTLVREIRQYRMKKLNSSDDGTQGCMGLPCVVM
Chain of NRAS G12C (P62937 whole entry): as the sequence (P62937 whole entry) above

Consider `C=CC(=O)N1CCO[C@H]2CN(C(=O)N(C)[C@H](C(=O)N[C@H]3CC4=NN=C(O4)c4ccc5c(c4)c(c(-c4cccnc4[C@H](C)OC)n5CC(F)(F)F)CC(C)(C)COC(=O)[C@@H]4CCCN(N4)C3=O)C(C)C)C[C@H]21` (atropisomer, axis not shown) [Example A576], for which the half-maximal effective concentration (EC50) in assay [1] was less than 5000 nM. The IC50 in the assay with NCI-H358 (K-Ras G12C), at K-Ras G13C and at NRAS G12C was 100 to 1000 nM each time.
Take `CO[C@@H](C)c1ncccc1-c1c2c3cc(ccc3n1CC(F)(F)F)-c1nc(co1)C[C@H](NC(=O)[C@H](C(C)C)N(C)C(=O)C1(F)CCN(C(=O)C#CC(C)(C)N(C)C)CC1)C(=O)N1CCC[C@H](N1)C(=O)OCC(C)(C)C2` (atropisomer, axis not shown) [Example A578]: the 50% effective concentration (EC50) in assay [1] is less than 5000 nM. Further, the IC50 is less than 10 nM with NCI-H358 (K-Ras G12C), 10 to 100 nM at K-Ras G13C and less than 10 nM on NRAS G12C.
As for `CCn1c(-c2cccnc2[C@H](C)OC)c2c3cc(ccc31)-c1cccc(c1)C[C@H](NC(=O)[C@@H](CO[C@H]1CCN(C(=O)C#CC(C)(C)N(C)C)C1)C(C)C)C(=O)N1CCC[C@H](N1)C(=O)OCC(C)(C)C2` (atropisomer, axis not shown) [Example A585], in assay [1], the EC50 is less than 5000 nM. For the same compound, the concentration for half-maximal inhibition (IC50) in the assay with NCI-H358 (K-Ras G12C) is less than 10 nM; at K-Ras G13C, 1000 to 10000 nM; at NRAS G12C it was 10 to 100 nM.
On to `CCn1c(-c2cccnc2[C@H](C)OC)c2c3cc(ccc31)C1=CCCN(C1)C[C@H](NC(=O)[C@H](C(C)C)N(C)C(=O)C1(F)CCN(C(=O)C#CC(C)(C)N(C)C)CC1)C(=O)N1CCC[C@H](N1)C(=O)OCC(C)(C)C2` (atropisomer, axis not shown) [Example A591], for which the EC50 in assay [1] is less than 5000 nM. For the same compound, the IC50 in the assay with NCI-H358 (K-Ras G12C) is less than 10 nM; on K-Ras G13C, 10 to 100 nM; on NRAS G12C, less than 10 nM.
On to `CCn1c(-c2cccnc2[C@H](C)OC)c2c3cc(ccc31)-c1cccc(c1)C[C@H](NC(=O)[C@@H](COC1CN(C(=O)C#CC(C)(C)N(C)C(C)C)C1)C(C)C)C(=O)N1CCC[C@H](N1)C(=O)OCC(C)(C)C2` (atropisomer, axis not shown) [Example A599], for which the EC50 in assay [1] was less than 5000 nM. In addition, the concentration for half-maximal inhibition (IC50) was less than 10 nM in the assay with NCI-H358 (K-Ras G12C), 1000 to 10000 nM at K-Ras G13C and 10 to 100 nM at NRAS G12C.
For `CO[C@@H](C)c1ncccc1-c1c2c3cc(ccc3n1CC(F)(F)F)-c1cccc(c1)CN(NC(=O)[C@@H](COC1CN(C(=O)C#CC(C)(C)N(C)C)C1)C(C)C)C(=O)N1CCC[C@H](N1)C(=O)OCC(C)(C)C2` (atropisomer, axis not shown) [Example A601], in that order: less than 5000 nM, less than 10 nM, 100 to 1000 nM and less than 10 nM.
The like results for `CO[C@@H](C)c1ncccc1-c1c2c3cc(ccc3n1CC(F)(F)F)-c1csc(n1)C[C@H](NC(=O)[C@H](C(C)C)N(C)C(=O)N1CCC3(CC1)CN(C(=O)/C=C/CF)C3)C(=O)N1CCC[C@H](N1)C(=O)OCC(C)(C)C2` (atropisomer, axis not shown) [Example A602] were, in that order, less than 5000 nM, less than 10 nM, 10 to 100 nM and 10 to 100 nM.
For `C=CC(=O)N1CCOC2(CCN(C(=O)N(C)[C@H](C(=O)N[C@H]3Cc4nc(n(C)n4)-c4ccc5c(c4)c(c(-c4cccnc4[C@H](C)OC)n5CC(F)(F)F)CC(C)(C)COC(=O)[C@@H]4CCCN(N4)C3=O)C(C)C)CC2)C1` (atropisomer, axis not shown) [Example A606], in that order: less than 5000 nM, 100 to 1000 nM, 10 to 100 nM and 100 to 1000 nM.
For the compound `C=CC(=O)N1CC2(C1)OCCN2C(=O)N(C)[C@H](C(=O)N[C@H]1Cc2nc(cs2)-c2ccc3c(c2)c(c(-c2cccnc2[C@H](C)OC)n3CC)CC(C)(C)COC(=O)[C@@H]2CCCN(N2)C1=O)C(C)C` (atropisomer, axis not shown) [Example A620], the EC50 in assay [1] was less than 5000 nM. The IC50 with NCI-H358 (K-Ras G12C) is less than 10 nM; at K-Ras G13C it was 100 to 1000 nM; on NRAS G12C, less than 10 nM.
As to `CCn1c(-c2cccnc2[C@H](C)OC)c2c3cc(ccc31)-c1cccc(n1)C[C@H](NC(=O)[C@H](C(C)C)N(C)C(=O)N1CCC13CN(C(=O)C#CC(C)(C)N(C)C)C3)C(=O)N1CCC[C@H](N1)C(=O)OCC(C)(C)C2` (atropisomer, axis not shown) [Example A623], in assay [1], the EC50 is less than 5000 nM. For the same compound, the IC50 was in the range of 10 to 100 nM in the assay on NCI-H358 (K-Ras G12C), 1000 to 10000 nM on K-Ras G13C and 100 to 1000 nM at NRAS G12C.
The like results for `CCn1c(-c2cccnc2[C@H](C)OC)c2c3cc(ccc31)-c1csc(n1)C[C@H](NC(=O)C[C@H](C)OC1CN(C(=O)C#CC(C)(C)N(C)C)C1)C(=O)N1CCC[C@H](N1)C(=O)OCC(C)(C)C2` (atropisomer, axis not shown) [Example A637] were, in that order, less than 5000 nM, 10 to 100 nM, 1000 to 10000 nM and 10 to 100 nM.
With `CO[C@@H](C)c1ncccc1-c1c2c3cc(ccc3n1CC(F)(F)F)N1CCO[C@@H](C[C@H](NC(=O)[C@H](C(C)C)N3CC[C@]4(CCN(C(=O)C#CC(C)(C)N(C)C)C4)C3=O)C(=O)N3CCC[C@H](N3)C(=O)OCC(C)(C)C2)C1` (atropisomer, axis not shown) [Example A642], the EC50 in assay [1] was less than 5000 nM. In addition, the IC50 was less than 10 nM in the assay on NCI-H358 (K-Ras G12C), 100 to 1000 nM on K-Ras G13C and less than 10 nM on NRAS G12C.
For the compound `CCn1c(-c2cccnc2[C@H](C)OC)c2c3cc(ccc31)N1CCO[C@@H](C[C@H](NC(=O)[C@H](C(C)C)N(C)C(=O)C3(F)CCN(C(=O)C#CC(C)(C)N(C)C)CC3)C(=O)N3CCC[C@H](N3)C(=O)OCC(C)(C)C2)C1` (atropisomer, axis not shown) [Example A647, 1-(4-(dimethylamino)-4-methylpent-2-ynoyl)-N-((2S)-1-(((2^2S,6^3S,4S)-1^1-ethyl-1^2-(2-((S)-1-methoxyethyl)pyridin-3-yl)-10,10-dimethyl-5,7-dioxo-6^1,6^2,6^3,6^4,6^5,6^6-hexahydro-1^1H-8-oxa-2(4,2)-morpholina-1(5,3)-indola-6(1,3)-pyridazinacycloundecaphane-4-yl)amino)-3-methyl-1-oxobutan-2-yl)-4-fluoro-N-methylpiperidine-4-carboxamide], the EC50 in assay [1] was less than 5000 nM. In addition, the IC50 was less than 10 nM in the assay on NCI-H358 (K-Ras G12C), 100 to 1000 nM on K-Ras G13C and less than 10 nM on NRAS G12C.
In the case of `C=CC(=O)N1CC[C@]2(C1)OCN([C@H](C(=O)N[C@H]1Cc3cccc(n3)-c3ccc4c(c3)c(c(-c3cccnc3[C@H](C)OC)n4CC)CC(C)(C)COC(=O)[C@@H]3CCCN(N3)C1=O)C(C)C)C2=O` (atropisomer, axis not shown) [Example A652], the EC50 in assay [1] is less than 5000 nM. Also, the half-maximal inhibitory concentration (IC50) in the assay with NCI-H358 (K-Ras G12C), at K-Ras G13C and on NRAS G12C was 100 to 1000 nM in each case.
Take `CCn1c(-c2cccnc2[C@H](C)OC)c2c3cc(ccc31)-c1cc(CF)cc(c1)C[C@H](NC(=O)[C@H](C(C)C)N(C)C(=O)[C@H]1CCN(C(=O)C#CC(C)(C)N(C)C)C1)C(=O)N1CCC[C@H](N1)C(=O)OCC(C)(C)C2` (atropisomer, axis not shown) [Example A658]: in assay [1], the EC50 is less than 5000 nM. The 50% inhibitory concentration (IC50) in the assay with NCI-H358 (K-Ras G12C) is less than 10 nM; at K-Ras G13C it was 100 to 1000 nM; on NRAS G12C it was less than 10 nM.
With `C=CC(=O)N1CC2(CCCN2C(=O)N(C)[C@H](C(=O)N[C@H]2Cc3nc(cs3)-c3ccc4c(c3)c(c(-c3cccnc3[C@H](C)OC)n4CC)CC(C)(C)COC(=O)[C@@H]3CCCN(N3)C2=O)C(C)C)C1` (atropisomer, axis not shown) [Example A667], in assay [1], the EC50 is less than 5000 nM. The concentration for half-maximal inhibition (IC50) with NCI-H358 (K-Ras G12C) is less than 10 nM; on K-Ras G13C, 100 to 1000 nM; at NRAS G12C, less than 10 nM.
Consider `CCn1c(-c2cccnc2[C@H](C)OC)c2c3cc(ccc31)-c1cc(CF)cc(c1)C[C@H](NC(=O)[C@H](C(C)C)N1CC[C@]3(CCN(C(=O)C#CC(C)(C)N(C)C)C3)C1=O)C(=O)N1CCC[C@H](N1)C(=O)OCC(C)(C)C2` (atropisomer, axis not shown) [Example A673], for which, in assay [1], the EC50 is less than 5000 nM. The IC50 with NCI-H358 (K-Ras G12C) was less than 10 nM; on K-Ras G13C it was 100 to 1000 nM; at NRAS G12C, less than 10 nM.
As to `CCn1c(-c2cccnc2[C@H](C)OC)c2c3cc(ccc31)-c1cccc(c1)C[C@H](NC(=O)[C@H](C(C)C)N(C)C(=O)C1(F)CCN(C(=O)/C=C/CN(C)C)CC1)C(=O)N1CCC[C@H](N1)C(=O)OCC(C)(C)C2` (atropisomer, axis not shown) [Example A685], the EC50 in assay [1] was less than 5000 nM. The IC50 is less than 10 nM with NCI-H358 (K-Ras G12C), 100 to 1000 nM on K-Ras G13C and 10 to 100 nM at NRAS G12C.
The like results for `CO[C@@H](C)c1ncccc1-c1c2c3cc(ccc3n1CC(F)(F)F)-c1cccc(c1)C[C@H](NC(=O)[C@H](C(C)C)N1CC[C@]3(CCN(C(=O)C#CC(C)(C)N(C)C)C3)C1=O)C(=O)N1CCC[C@H](N1)C(=O)OCC(C)(C)C2` (atropisomer, axis not shown) [Example A689] were, in that order, less than 5000 nM, less than 10 nM, 100 to 1000 nM and less than 10 nM.
